Test results reported in PMC10779433, “Bidirectional Allosteric Coupling between PIP2 Binding and the Pore of the Oncochannel TRPV6” (International Journal of Molecular Sciences, 2024).
No end group written: not given here. *: point of attachment. Palmitoyl = CCCCCCCCCCCCCCCC(=O)*

Experiments:
[1] = molecular target: T1, TRPV6 WT (Homo sapiens, UniProt Q9H1D0); test: Fura-2 Ca2+ imaging, TRPV6 WT; type: cell-based; settings: HEK293 cells; 20 μM control peptide; effect likely attributable to ongoing channel inactivation
T1 construct: expressed in transfected cells; host or cells: HEK293 cells, transient transfection
T1 sequence (Q9H1D0 41-765 limits assumed): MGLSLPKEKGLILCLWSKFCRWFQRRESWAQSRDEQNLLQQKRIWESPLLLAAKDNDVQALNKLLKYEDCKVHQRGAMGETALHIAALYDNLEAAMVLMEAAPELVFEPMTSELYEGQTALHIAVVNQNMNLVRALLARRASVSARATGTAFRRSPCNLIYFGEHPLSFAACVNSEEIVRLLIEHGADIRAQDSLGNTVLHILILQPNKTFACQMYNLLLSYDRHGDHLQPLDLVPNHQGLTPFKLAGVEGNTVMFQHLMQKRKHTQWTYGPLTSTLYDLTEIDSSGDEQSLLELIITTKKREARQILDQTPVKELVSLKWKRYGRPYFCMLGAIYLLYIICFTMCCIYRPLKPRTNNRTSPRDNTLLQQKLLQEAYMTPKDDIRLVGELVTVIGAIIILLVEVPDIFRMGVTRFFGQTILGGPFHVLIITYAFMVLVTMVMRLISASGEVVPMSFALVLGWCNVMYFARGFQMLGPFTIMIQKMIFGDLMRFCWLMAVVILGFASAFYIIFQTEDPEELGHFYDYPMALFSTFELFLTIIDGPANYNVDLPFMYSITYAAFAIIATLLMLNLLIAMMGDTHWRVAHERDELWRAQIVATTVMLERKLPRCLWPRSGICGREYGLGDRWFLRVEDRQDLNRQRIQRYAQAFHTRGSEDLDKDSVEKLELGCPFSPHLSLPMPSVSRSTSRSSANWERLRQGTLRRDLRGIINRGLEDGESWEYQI

[2] = system: TRPV6; settings: physiologically relevant concentrations; ref [19],[59]; cited from earlier work

Palmitoyl-HAQKHFEAAA [control peptide, palmitoylated peptide having four of the basic residues of the pal-PIP2 peptide replaced by alanine]
decrease in cytosolic Ca2+ level (in words) [1]: slow, continuous reduction

phosphatidylinositol-4-phosphate [PI(4)P]
activation of TRPV6 [2]: does not activate TRPV6
